# Measurements published in patent publication US20030212123A1, “COX-2 selective carprofen for treating pain and inflammation in dogs” (Pfizer Inc., priority 1997, published 2003).
# “And” between values parts separate entries of the source, which are not always exact repeats. Identical values can stand only once. Like-named read-outs stand apart in the source and are kept apart here.
# Key:
# canine COX-2 = molecular target: T1, canine COX-2 (Canis lupus familiaris, UniProt Q8SPQ9); experiment: Canine COX-2 activity: LPS-treated DH82 canine histocytoma cells, PGE2 by EIA; assay type: cell-based, dog
# T1 construct: host or cells: DH82 canine histocytoma cells, LPS-treated overnight
# T1 sequence (Q8SPQ9 18-604): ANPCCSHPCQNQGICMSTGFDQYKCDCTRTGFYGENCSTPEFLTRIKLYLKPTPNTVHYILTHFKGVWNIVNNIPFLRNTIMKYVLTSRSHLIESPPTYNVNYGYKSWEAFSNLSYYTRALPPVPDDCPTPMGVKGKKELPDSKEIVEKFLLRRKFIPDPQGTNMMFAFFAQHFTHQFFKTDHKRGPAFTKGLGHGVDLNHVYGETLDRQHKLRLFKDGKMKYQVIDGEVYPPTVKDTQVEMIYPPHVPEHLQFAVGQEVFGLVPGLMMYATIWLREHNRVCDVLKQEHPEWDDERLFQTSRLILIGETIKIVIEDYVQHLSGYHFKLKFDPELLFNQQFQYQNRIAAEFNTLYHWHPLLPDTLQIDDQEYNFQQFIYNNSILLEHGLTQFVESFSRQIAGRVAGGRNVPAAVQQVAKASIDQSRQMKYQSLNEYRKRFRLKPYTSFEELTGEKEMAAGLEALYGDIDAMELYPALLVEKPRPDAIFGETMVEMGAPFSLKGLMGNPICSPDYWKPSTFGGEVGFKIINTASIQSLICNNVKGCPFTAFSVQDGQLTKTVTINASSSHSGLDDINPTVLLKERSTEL
# Method: Protocol for Evaluation of Canine COX-2 Activity
# A canine histocytoma (macrophage-like) cell line from the American Type Culture Collection designated as DH82, was used in setting up the protocol for evaluating the COX-2 inhibition activity of various test drug compounds. There was added to flasks of these cells 10 μg/mL of LPS, after which the flask cultures were incubated overnight. The same test drug compound dilutions as described above for the COX-1 protocol were used for the COX-2 assay and were prepared the day before the assay was carried out. […] The test sample suspensions were incubated for 1 hr and then centrifuged at 1000 rpm for 10 min at 4° C., after which 50 μl aliquots of each test drug sample were delivered to EIA plates. The EIA was performed for prostaglandin E2 (PGE2), and the pg/mL concentration of PGE2 was calculated from the standard line included on each plate. […] The results were averaged, and a single COX-1:COX-2 ratio was calculated.
# [1] = Total plasma carprofen concentration by chiral HPLC, Example 3; assay type: in vivo, dog; details: individual dogs
# Excerpt: (§1) The ether layer was separated, then back-extracted with 0.005 M Na2CO3, after which the organic phase was discarded by aspiration. The aqueous phase was buffered with 0.05 M citric acid pH 5.1, then was again extracted with diethyl ether:dichloromethane. The ether was then transferred to clean tubes, evaporated under a stream of nitrogen, and the residue reconstituted in HPLC mobile phase for analysis.
# as §1
# [2] = Systemic clearance estimated from oral pharmacokinetics; assay type: in vivo, dog; details: estimated from pharmacokinetics after oral 2 mg/lb to dogs, F assumed 1, AUC extrapolated to infinity
# Method: where Css is the steady state plasma carprofen concentration, R0 is the input rate, and Cl is the systemic clearance.
# where F is the bioavailability (assumed to be 1 for an implant), D is the oral dose, and AUC is the average area under the plasma carprofen concentration vs. time curve, extrapolated to infinity.
# A total dose of 3.6 mg/lb or 8.4 mg/lb or 36 mg/lb would be required for 3, 7, or 30 day therapy, respectively. In summary, an implant containing 8.4 mg carprofen per lb body weight, releasing carprofen at a rate of 50 μg per lb of body weight per hr, maintains a plasma carprofen concentration of 10 μg/mL for 7 days. This will maintain 80% COX-2 inhibition for 7 days.
# COX-2 = COX-2 (Rattus norvegicus, UniProt P35355); experiment: in vivo; details: read-out: COX-2 ED50
# Method: In vivo cyclo-oxygenase selectivity was evaluated in rats by the method of Griffiths et al., described in Agents & Actions, 32, (1991), 313-320. […] Synovial fluid is secreted by the synovial membrane and is contained in joint cavities. During joint inflammation, COX-2 is induced in joint tissues and prostaglandin products accumulate in the synovial fluid. […] Inhibition of this stomach isozyme results in adverse gastrointestinal side effects.
# [3] = molecular target: T2, COX-1 (derived from bovine aortic endothelial cells) (Bos taurus, UniProt O62664); details: cited from earlier work
# T2 construct: COX-1 (derived from bovine aortic endothelial cells); host or cells: bovine aortic endothelial cells (endogenous)
# T2 sequence (O62664 25-600): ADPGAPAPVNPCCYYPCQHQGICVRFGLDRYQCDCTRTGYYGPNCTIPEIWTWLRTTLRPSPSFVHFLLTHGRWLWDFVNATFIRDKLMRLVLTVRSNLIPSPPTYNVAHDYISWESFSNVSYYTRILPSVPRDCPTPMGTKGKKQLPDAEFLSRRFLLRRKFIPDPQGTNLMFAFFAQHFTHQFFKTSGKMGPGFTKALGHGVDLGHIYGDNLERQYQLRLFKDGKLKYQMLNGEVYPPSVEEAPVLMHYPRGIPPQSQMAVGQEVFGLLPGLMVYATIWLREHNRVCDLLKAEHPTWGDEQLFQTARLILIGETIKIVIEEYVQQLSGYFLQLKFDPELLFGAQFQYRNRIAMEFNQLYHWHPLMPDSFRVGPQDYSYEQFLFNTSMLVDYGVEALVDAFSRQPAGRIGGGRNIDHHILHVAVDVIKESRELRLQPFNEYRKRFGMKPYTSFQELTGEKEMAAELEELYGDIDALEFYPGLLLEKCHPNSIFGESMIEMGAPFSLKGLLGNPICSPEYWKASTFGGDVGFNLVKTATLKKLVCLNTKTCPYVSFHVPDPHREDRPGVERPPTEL
# [4] = at equipotent anti-inflammatory activity with indomethacin, Holtsinger et al.; cited from earlier work
# Chain of COX-2 (P35355 18-604): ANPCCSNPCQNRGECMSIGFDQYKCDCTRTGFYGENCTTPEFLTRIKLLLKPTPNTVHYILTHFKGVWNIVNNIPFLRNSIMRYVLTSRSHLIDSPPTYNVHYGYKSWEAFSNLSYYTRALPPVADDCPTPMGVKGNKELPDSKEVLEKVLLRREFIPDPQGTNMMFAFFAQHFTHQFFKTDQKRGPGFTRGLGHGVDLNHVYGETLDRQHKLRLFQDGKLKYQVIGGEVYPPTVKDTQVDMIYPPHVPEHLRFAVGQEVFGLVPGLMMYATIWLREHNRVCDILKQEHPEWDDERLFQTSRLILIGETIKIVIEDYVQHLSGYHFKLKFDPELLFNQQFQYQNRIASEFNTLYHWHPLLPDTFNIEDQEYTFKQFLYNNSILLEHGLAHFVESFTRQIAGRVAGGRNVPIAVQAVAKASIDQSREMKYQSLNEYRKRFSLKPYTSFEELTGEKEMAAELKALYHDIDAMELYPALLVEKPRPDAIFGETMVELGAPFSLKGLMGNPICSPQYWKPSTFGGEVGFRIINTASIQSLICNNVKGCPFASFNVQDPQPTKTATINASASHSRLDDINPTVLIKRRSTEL
smiles,measurement,setting,value
"CC(C(=O)O)c1ccc2c(c1)[nH]c1ccc(Cl)cc12 (racemic) [Carprofen (rac.), 6-chloro-α-methyl-9H-carbazole-2-acetic acid]",IC50,canine COX-2,0.102 µM
same,Plasma concentration,"[1]; 2 mg/kg PO tablet, 2-hour",21.9 µg/mL and 8.6 µg/mL and 17.2 µg/mL
same,Plasma concentration,"[1]; 2 mg/kg PO tablet, 4-hour",13.4 µg/mL and 5.7 µg/mL and 10.6 µg/mL
same,Plasma concentration,"[1]; 4 mg/kg PO tablet, 2-hour",29.9 µg/mL and 29.0 µg/mL
same,Plasma concentration,"[1]; 4 mg/kg PO tablet, 4-hour",21.1 µg/mL and 27.0 µg/mL
same,concentration at 2 h,"[1]; dog, plasma, oral, 4 mg/kg, 4 mg/kg PO tablet, 2-hour",37.6 µg/mL
same,concentration at 4 h,"[1]; dog, plasma, oral, 4 mg/kg, 4 mg/kg PO tablet, 4-hour",29.1 µg/mL
same,systemic clearance Cl,[2],5 mL/hr per lb body weight
same,ED50,COX-2,0.63 mg/kg
same,IC50,"[3]; as shown by Battistini et al., read-out: IC50 (μM) COX-1",11 µM
same,IC50,"[3]; n=9, bovine aortic endothelial cells, read-out: IC50 (μg/mL) COX-1 (converted)",11 µM
same,"ulcerogenic potential, times less than indomethacin",[4],16 times
